How the values were obtained:
SIRT1 [1] = biological target: T1, SIRT1 (Homo sapiens, UniProt Q96EB6); assay: TAMRA based mass spectrometry assay of SIRT1 activity; assay type: biochemical; details: for Emax: read-out: TAMRA % Fold Act
T1 sequence (Q96EB6 1-747): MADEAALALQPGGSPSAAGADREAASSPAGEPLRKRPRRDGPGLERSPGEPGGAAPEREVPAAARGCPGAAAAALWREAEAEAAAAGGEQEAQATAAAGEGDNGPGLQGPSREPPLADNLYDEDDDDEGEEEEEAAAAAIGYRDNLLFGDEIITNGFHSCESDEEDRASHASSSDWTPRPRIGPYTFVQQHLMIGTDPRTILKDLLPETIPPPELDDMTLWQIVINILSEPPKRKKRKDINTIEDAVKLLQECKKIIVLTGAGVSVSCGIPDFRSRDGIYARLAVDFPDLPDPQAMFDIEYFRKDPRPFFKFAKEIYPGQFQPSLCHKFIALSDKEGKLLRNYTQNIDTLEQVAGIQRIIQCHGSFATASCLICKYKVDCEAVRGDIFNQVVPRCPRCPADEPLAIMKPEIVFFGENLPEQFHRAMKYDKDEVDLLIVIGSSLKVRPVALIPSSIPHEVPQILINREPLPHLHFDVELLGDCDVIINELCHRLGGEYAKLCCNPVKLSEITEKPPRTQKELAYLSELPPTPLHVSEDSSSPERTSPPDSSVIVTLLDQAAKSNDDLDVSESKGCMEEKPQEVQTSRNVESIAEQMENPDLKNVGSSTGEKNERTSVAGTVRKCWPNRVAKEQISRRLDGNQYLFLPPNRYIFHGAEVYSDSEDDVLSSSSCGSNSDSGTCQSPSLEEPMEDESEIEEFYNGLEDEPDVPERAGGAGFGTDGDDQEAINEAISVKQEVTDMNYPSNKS
How it was run: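 Recombinant N-terminal His-tagged human SIRT1 (10 nM, E. coli) incubated 25 min at 25 °C with 0.5 μM 5TMR-labelled p53-derived acetyl-peptide and 120 μM βNAD+ in Tris-acetate pH 8 buffer with DTT and 0.05% BSA, compound at varying concentrations. Stopped with formic acid; deacetylated peptide or OAADPR measured by mass spectrometry relative to DMSO controls.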

SIRT1 [2] = biological target: T1, SIRT1; assay: Trp mass spectrometry assay of SIRT1 activity; assay type: biochemical; details: for Emax: read-out: Trp % Fold Act
How it was run: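 His-tagged SIRT1 expressed in E. coli BL21(DE3), 10 nM, incubated 25 min at 25° C. with 0.5 μM Ac-RHKK(Ac)W-NH2 peptide and 120 μM βNAD+ in 50 mM HEPES pH 7.5, […], 1 mM DTT, 0.05% BSA; formic acid stop. OAADPR or deacetylated peptide measured by mass spectrometry; EC1.5 and percent maximum activation versus DMSO control.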

[3] = TAMRA assay, concentration giving 150% activation of SIRT1
[4] = TAMRA assay, percent maximum fold activation
[5] = Trp assay, concentration giving 150% activation of SIRT1
[6] = Trp assay, percent maximum fold activation
[7] = concentration of test compound giving 150% activation of SIRT1, TAMRA peptide substrate
[8] = percent maximum fold activation of SIRT1, TAMRA peptide substrate
[9] = concentration of test compound giving 150% activation of SIRT1, Trp peptide substrate
[10] = percent maximum fold activation of SIRT1, Trp peptide substrate
[11] = TAMRA peptide substrate, concentration giving 150% activation of SIRT1
[12] = TAMRA peptide substrate, percent maximum fold activation
[13] = Trp peptide substrate, concentration giving 150% activation of SIRT1
[14] = Trp peptide substrate, percent maximum fold activation

Compound | TAMRA EC1.5 (μM) (SIRT1 [1]; [3]) | Emax (SIRT1 [1]; [4]) [%] | Trp EC1.5 (μM) (SIRT1 [2]; [5]) | Emax (SIRT1 [2]; [6]) [%] | also measured
Cc1nccc(NC(=O)c2c(C)nn3ccc(-c4ccccc4C(F)(F)F)nc23)c1C [Compound 639] | A (EC1.5<1 μM) | ≥ 350 | A (EC1.5<1 μM) | ≥ 350 | 
O=C(Nc1ncc(F)cc1F)c1cnn2ccc(-c3ccccc3C(F)(F)F)nc12 [Compound 656] | B (EC1.5 1-25 μM) | ≥ 350 | B (EC1.5 1-25 μM) | < 350 | 
O=C(Nc1ccncc1)c1cnc2ccc(-c3c(F)cccc3Cl)nn12 [Compound 161] |  |  |  |  | TAMRA EC1.5 (μM) (SIRT1 [1]; [7]): B (EC1.5 1-25 μM); Emax (SIRT1 [1]; [8]): < 350%; Trp EC1.5 (μM) (SIRT1 [2]; [9]): C (EC1.5>25 μM); Emax (SIRT1 [2]; [10]): < 350%
Cc1cc(C)nc(NC(=O)c2cnc3c(C)c(C)c(-c4ccccc4Cl)nn23)c1 [Compound 230] | A (EC1.5<1 μM) | ≥ 350 | C (EC1.5>25 μM) | < 350 | 
Cc1cc(-c2ccccc2C(F)(F)F)nn2c(NC(=O)c3cccc(OCC(O)CO)n3)cnc12 (centres unmarked) [Compound 427] |  |  |  |  | TAMRA EC1.5 (SIRT1 [1]; [11]): A (EC1.5<1 μM); Emax (SIRT1 [1]; [12]): ≥ 350%; Trp EC1.5 (SIRT1 [2]; [13]): A (EC1.5<1 μM); Emax (SIRT1 [2]; [14]): ≥ 350%
Cc1nc2ccc(-c3ccccc3C(F)(F)F)nn2c1C(=O)Nc1ccncc1 [Compound 499] |  |  |  |  | TAMRA EC1.5 (SIRT1 [1]; [11]): A (EC1.5<1 μM); Emax (SIRT1 [1]; [12]): ≥ 350%; Trp EC1.5 (SIRT1 [2]; [13]): A (EC1.5<1 μM); Emax (SIRT1 [2]; [14]): ≥ 350%
O=C(Nc1cnn2ccc(-c3ccccc3OC(F)(F)F)nc12)c1cc(O)ncn1 [Compound 776] | B (EC1.5 1-25 μM) | ≥ 350 | C (EC1.5>25 μM) | < 350 | 
COc1ccnc(NC(=O)c2cnc3ccc(-c4ccccc4C(F)(F)F)nn23)n1 [Compound 175] |  |  |  |  | TAMRA EC1.5 (μM) (SIRT1 [1]; [7]): A (EC1.5<1 μM); Emax (SIRT1 [1]; [8]): ≥ 350%; Trp EC1.5 (μM) (SIRT1 [2]; [9]): B (EC1.5 1-25 μM); Emax (SIRT1 [2]; [10]): ≥ 350%
Cc1ccc(NC(=O)c2cnn3ccc(-c4ccccc4OC(F)(F)F)nc23)cn1 [Compound 621] | A (EC1.5<1 μM) | ≥ 350 | A (EC1.5<1 μM) | ≥ 350 | 
O=C(Nc1ccc(CN2CCCC2)nc1)c1cnc2ccc(-c3ccccc3C(F)(F)F)nn12 [Compound 149] |  |  |  |  | TAMRA EC1.5 (μM) (SIRT1 [1]; [7]): B (EC1.5 1-25 μM); Emax (SIRT1 [1]; [8]): < 350%; Trp EC1.5 (μM) (SIRT1 [2]; [9]): B (EC1.5 1-25 μM); Emax (SIRT1 [2]; [10]): < 350%
O=C(Nc1ccccn1)c1cnc2ccc(-c3ccccc3OC[C@H](O)CO)nn12 [Compound 812] | A (EC1.5<1 μM) | ≥ 350 | A (EC1.5<1 μM) | ≥ 350 | 
O=C(Nc1cnc2ccc(-c3ccccc3C(F)(F)F)nn12)c1cccc(O)n1 [Compound 467] |  |  |  |  | TAMRA EC1.5 (SIRT1 [1]; [11]): B (EC1.5 1-25 μM); Emax (SIRT1 [1]; [12]): ≥ 350%; Trp EC1.5 (SIRT1 [2]; [13]): B (EC1.5 1-25 μM); Emax (SIRT1 [2]; [14]): < 350%
O=C(Nc1cccnc1)c1ncn2ccc(-c3ccccc3C(F)(F)F)nc12 [Compound 451, N-(pyridin-3-yl)-2-(2-(trifluoromethyl)phenyl)imidazo[1,5-a]pyrimidine-8-carboxamide] |  |  |  |  | TAMRA EC1.5 (SIRT1 [1]; [11]): B (EC1.5 1-25 μM); Emax (SIRT1 [1]; [12]): ≥ 350%; Trp EC1.5 (SIRT1 [2]; [13]): B (EC1.5 1-25 μM); Emax (SIRT1 [2]; [14]): ≥ 350%
Cc1cc(NC(=O)c2cnn3ccc(-c4ccccc4OC(F)(F)F)nc23)ccn1 [Compound 612] | A (EC1.5<1 μM) | ≥ 350 | A (EC1.5<1 μM) | ≥ 350 | 
Cc1cnc(NC(=O)c2cnc3ccc(-c4ccccc4OC[C@H](O)CO)nn23)s1 [Compound 820] | B (EC1.5 1-25 μM) | ≥ 350 | B (EC1.5 1-25 μM) | < 350 | 

The next lines start with results.

TAMRA EC1.5 (μM) (SIRT1 [1]; [3]) | Emax (SIRT1 [1]; [4]) [%] | Trp EC1.5 (μM) (SIRT1 [2]; [5]) | Emax (SIRT1 [2]; [6]) [%] | Compound | also measured
B (EC1.5 1-25 μM) | ≥ 350 | C (EC1.5>25 μM) | < 350 | Cc1cnc(C(=O)Nc2cnn3ccc(-c4ccccc4C(F)(F)F)nc23)cn1 [Compound 800] | 
A (EC1.5<1 μM) | ≥ 350 | A (EC1.5<1 μM) | < 350 | Cc1nc2c(C)cc(-c3ccccc3C(F)(F)F)nn2c1C(=O)Nc1ccnc(C(C)(C)C)n1 [Compound 731] | 
